In patent publication US20070042949A1, “Pharmaceutical compositions comprising an epitope of platelet gpiiia protein” (priority 2003, published 2007):

System: Peripheral blood mononuclear cells (PBMC) from HPA-1b1b women
Experiment: T-cell proliferation assay (3H-thymidine incorporation) of PBMC stimulated with HPA-1a/1b 15-mer peptides, HPA-1b1b women
Format: cell-based, human
Conditions: peptide 20 μg/mL; for immunodominance in stimulating specific T-cell responses in vitro: HPA-1a alloimmunised HPA-1b1b women; for strength of PBMC proliferative response (in words): HPA-1b1b women
Experimental: The cells were stimulated with a panel of 15-mer peptides corresponding to the sequences of the HPA-1a and 1b alloantigens containing Leu33 and Pro33 respectively (see FIG. 1). Two categories of control donors were utilised; 1 HPA-1b1b unimmunised donor and 11 HPA-1a randomly selected female donors. Testing of both patients and controls was carried out in cell culture conditions designed to favour proliferation by previously activated T-cells, rather than primary responses.
The human platelet membrane GPIIIa amino acid sequence reported by Frachet et al Mol. Biol. Rep. 1990, vol 14, 27-33 (genebank accession no: M35999) was used as the basis for production of the HPA-1a and HPA-1b GPIIIa synthetic peptides. Two panels of 15-mer peptides were synthesised corresponding to the sequences of the HPA-1 polymorphic region, with either the Leu-33 or Pro-33 at each possible position (see FIG. 1). One set of the 15-mer peptides contained the leucine polymorphism and the other set of 15 contained the proline polymorphism. To ensure purity each panel was synthesized by f-moc chemistry. The peptides were reconstituted to a concentration of 2.0 mg/ml and used for stimulation of PBMC at 20 μg/mL in culture.
Mononuclear cells were recovered from samples of peripheral blood of all patients and control donors by density gradient centrifugation technique (Lymphoprep; Nycomed, Denmark) according to the manufacturer's instructions. The cells were then manually counted by hemocytometer.
Peripheral blood mononuclear cells were cultured at a concentration of 1.25×10^6 cells per mL in Alpha Modification of Eagle's Medium (Sigma Diagnostic, St. Louis, Mo., USA.) supplemented with 4 mmol/l L-glutamine (Gibco, Paisley, UK), 100 μg/ml streptomycin sulphate (Sigma Diagnostic, St. Louis, Mo., USA), 100 u/mL sodium benzylpenicillin G (Sigma Diagnostic, St. Louis, Mo., USA), 20 mmol/L HEPES, PH 7.2 (Sigma Diagnostic, St. Louis, Mo., USA) and 5% autologous serum or AB serum. Twelve microlitres of synthetic HPA-1a/1b peptides and control antigens (PPD, KLH and ConA) were each added to appropriate wells of the microtitre plates before the cell culture suspension was layered. The culture plates were incubated at 37° C. in a humidified atmosphere of 95% air and 5% CO2 for 5 days. T-cell proliferation in cultures was estimated from the incorporation of ^3H-thymidine in triplicate 100 μL samples withdrawn from the plates 5 days after stimulation. T-cell proliferation results were presented either as the mean counts per minute (CPM)±SD of the triplicate samples or as a stimulation index (SI) expressing the ratio of mean CPM in stimulated versus unstimulated control cultures. A SI >3 was interpreted as representing a positive response.

| Substance | immunodominance in stimulating specific T-cell responses in vitro | percentage of HPA-1a alloimmunised HPA-1b1b women in whom the peptide elicited proliferation of T-cells (5 days, SI >3 = positive response, 14 alloimmunised women) | strength of PBMC proliferative response (in words) (5 days) |
| --- | --- | --- | --- |
| SEQ ID No:5: 15-mer synthetic HPA-1a (Leu-33) GPIIIa peptide, polymorphism in the C-terminal part of the peptide (CAWCSDEALPLGSPR; listed as Homo sapiens) | immunodominant |  |  |
| SEQ ID No:1: 15-mer synthetic HPA-1a (Leu-33) GPIIIa peptide, polymorphism in the C-terminal part of the peptide (VSPMCAWCSDEALPL; listed as Homo sapiens) | immunodominant | approximately 50% |  |
| SEQ ID No:3: 15-mer synthetic HPA-1a (Leu-33) GPIIIa peptide, polymorphism in the C-terminal part of the peptide (PMCAWCSDEALPLGS; listed as Homo sapiens) | immunodominant |  |  |
| SEQ ID No:6: 15-mer synthetic HPA-1a (Leu-33) GPIIIa peptide, polymorphism in the C-terminal part of the peptide (AWCSDEALPLGSPRC; listed as Homo sapiens) | immunodominant |  | strong responses in particular individuals |
| SEQ ID No:7: 15-mer synthetic HPA-1a (Leu-33) GPIIIa peptide, polymorphism in the C-terminal part of the peptide (WCSDEALPLGSPRCD; listed as Homo sapiens) | immunodominant |  | strong responses in particular individuals |
| SEQ ID No:4: 15-mer synthetic HPA-1a (Leu-33) GPIIIa peptide, polymorphism in the C-terminal part of the peptide (MCAWCSDEALPLGSP; listed as Homo sapiens) | immunodominant |  |  |
| SEQ ID No:2: 15-mer synthetic HPA-1a (Leu-33) GPIIIa peptide, polymorphism in the C-terminal part of the peptide (SPMCAWCSDEALPLG; listed as Homo sapiens) | immunodominant |  |  |
